Measurements published in the CheMixHub ionic liquid set.
Where “and” joins values, the source holds several entries; their conditions need not be identical. Equal values may be shown once.

Assay: xn = mol fraction of the nth substance listed
Settings: 101.3 kPa

CCCC[N+]1(C)CCCCC1.F[P-](F)(F)(F)(F)F + CCCC[n+]1cccc(C)c1.F[P-](F)(F)(F)(F)F + CCCC[N+]1(C)CCCC1.F[P-](F)(F)(F)(F)F
viscosity
Settings	333.15 K	338.15 K	343.15 K	348.15 K	353.15 K	358.15 K	363.15 K
x2 = 0.2, x1 = 0.32	–	194 mPa·s	152 mPa·s	121 mPa·s	98 mPa·s	80 mPa·s	66 mPa·s
x2 = 0.3, x1 = 0.28	–	163 mPa·s	129 mPa·s	103 mPa·s	84 mPa·s	69 mPa·s	57 mPa·s
x2 = 0.4, x1 = 0.06	–	111 mPa·s	89 mPa·s	72 mPa·s	60 mPa·s	50 mPa·s	42 mPa·s
x2 = 0.4, x1 = 0.12	–	121 mPa·s	97 mPa·s	78 mPa·s	64 mPa·s	53 mPa·s	45 mPa·s
x2 = 0.4, x1 = 0.18	–	125 mPa·s	100 mPa·s	81 mPa·s	66 mPa·s	55 mPa·s	46 mPa·s
x2 = 0.4, x1 = 0.24	–	137 mPa·s and 138 mPa·s	109 mPa·s	87 mPa·s and 88 mPa·s	71 mPa·s and 72 mPa·s	59 mPa·s	49 mPa·s
x2 = 0.4, x1 = 0.3	–	145 mPa·s	115 mPa·s	92 mPa·s	75 mPa·s	62 mPa·s	51 mPa·s
x2 = 0.4, x1 = 0.36	–	155 mPa·s	122 mPa·s	97 mPa·s	79 mPa·s	65 mPa·s	54 mPa·s
x2 = 0.4, x1 = 0.42	–	165 mPa·s	129 mPa·s	103 mPa·s	83 mPa·s	68 mPa·s	56 mPa·s
x2 = 0.4, x1 = 0.48	–	176 mPa·s	137 mPa·s	109 mPa·s	88 mPa·s	71 mPa·s	59 mPa·s
x2 = 0.4, x1 = 0.54	–	188 mPa·s	146 mPa·s	116 mPa·s	93 mPa·s	75 mPa·s	62 mPa·s
x2 = 0.5, x1 = 0.2	–	117 mPa·s	93 mPa·s	75 mPa·s	62 mPa·s	51 mPa·s	43 mPa·s
x2 = 0.6, x1 = 0.16	127 mPa·s	100 mPa·s	80 mPa·s	65 mPa·s	54 mPa·s	45 mPa·s	38 mPa·s
x2 = 0.7, x1 = 0.12	109 mPa·s	87 mPa·s	70 mPa·s	57 mPa·s	47 mPa·s	39 mPa·s	33 mPa·s
x2 = 0.8, x1 = 0.08	95 mPa·s	76 mPa·s	61 mPa·s	50 mPa·s	42 mPa·s	35 mPa·s	30 mPa·s
x2 = 0.9, x1 = 0.04	84 mPa·s	67 mPa·s	54 mPa·s	45 mPa·s	37 mPa·s	31 mPa·s	27 mPa·s
